In the test the target is cAMP-dependent protein kinase catalytic subunit alpha (Bos taurus, UniProt P00517). Briefly: PKA assay. Here is the method: The activity of PKA, activated by cAMP, is measured by its ability to transfer phosphate from [gamma-32P]ATP to histone.

These results are taken from BindingDB's records for doi:10.1021/jm960581w (Sphinx Laboratories, 1996).

Each structure is given as a SMILES string.

As to `O=C(NC(COC(=O)c1cc(O)c(C(=O)c2c(O)cccc2C(=O)O)c(O)c1)Cc1ccc(O)cc1)c1ccccc1` (racemic) [2-[(2,6-dihydroxy-4-{[3-(4-hydroxyphenyl)-2-(phenylformamido)propoxy]carbonyl}phenyl)carbonyl]-3-hydroxybenzoic acid], the half-inhibitory concentration (IC50) is above 50 µM. The figure for `CN(C)C(COC(=O)c1cc(O)c(C(=O)c2c(O)cccc2C(=O)O)c(O)c1)Cc1ccc(O)cc1` (racemic) [2-[(4-{[2-(dimethylamino)-3-(4-hydroxyphenyl)propoxy]carbonyl}-2,6-dihydroxyphenyl)carbonyl]-3-hydroxybenzoic acid] is above 50 µM; for `O=C(OCC(NS(=O)(=O)c1ccccc1)c1ccc(O)cc1)c1cc(O)c(C(=O)c2c(O)cccc2C(=O)O)c(O)c1` (racemic) [2-[(4-{[2-benzenesulfonamido-2-(4-hydroxyphenyl)ethoxy]carbonyl}-2,6-dihydroxyphenyl)carbonyl]-3-hydroxybenzoic acid] it is above 50 µM. To `O=C(OCC(COc1ccc(O)cc1)NS(=O)(=O)c1ccccc1)c1cc(O)c(C(=O)c2c(O)cccc2C(=O)O)c(O)c1` (racemic) [2-[(4-{[2-benzenesulfonamido-3-(4-hydroxyphenoxy)propoxy]carbonyl}-2,6-dihydroxyphenyl)carbonyl]-3-hydroxybenzoic acid] belongs above 50 µM; to `O=C(O[C@@H]1CCC[C@H]1Oc1ccc(O)cc1)c1cc(O)c(C(=O)c2c(O)cccc2C(=O)O)c(O)c1` (racemic) [2-{[2,6-dihydroxy-4-({[(1R,2R)-2-(4-hydroxyphenoxy)cyclopentyl]oxy}carbonyl)phenyl]carbonyl}-3-hydroxybenzoic acid], above 50 µM. The figure for `O=C(O[C@@H]1CCC[C@H]1Cc1ccc(O)cc1)c1cc(O)c(C(=O)c2c(O)cccc2C(=O)O)c(O)c1` (racemic) [2-{[2,6-dihydroxy-4-({[(1R,2S)-2-[(4-hydroxyphenyl)methyl]cyclopentyl]oxy}carbonyl)phenyl]carbonyl}-3-hydroxybenzoic acid] is above 50 µM; for `CS(=O)(=O)NC(COC(=O)c1cc(O)c(C(=O)c2c(O)cccc2C(=O)O)c(O)c1)Cc1ccc(O)cc1` (racemic) [(+-)-2-[[2,6-Dihydroxy-4-[[[3-(4-hydroxyphenyl)-2-[(methylsulfonyl)amino]propyl]oxy]carbonyl]phenyl]carbonyl]-3-hydroxybenzoic Acid] it is above 50 µM. Compound `O=C(OCC(Cc1ccc(O)cc1)NS(=O)(=O)c1ccccc1)c1cc(O)c(C(=O)c2c(O)cccc2C(=O)O)c(O)c1` (racemic) [(+-)-2-[[2,6-Dihydroxy-4-[[[3-(4-hydroxyphenyl)-2-[(phenylsulfonyl)amino]propyl]oxy]carbonyl]phenyl]carbonyl]-3-hydroxybenzoic Acid] showed an IC50 above 50 µM. `O=C(OCCCCc1ccc(O)cc1)c1cc(O)c(C(=O)c2c(O)cccc2C(=O)O)c(O)c1` [2-[(2,6-dihydroxy-4-{[4-(4-hydroxyphenyl)butoxy]carbonyl}phenyl)carbonyl]-3-hydroxybenzoic acid] returned an IC50 above 50 µM. The figure for `O=C(OC[C@@H](Cc1ccc(O)cc1)NS(=O)(=O)c1ccccc1)c1cc(O)c(C(=O)c2c(O)cccc2C(=O)O)c(O)c1` [2-[(4-{[(2R)-2-benzenesulfonamido-3-(4-hydroxyphenyl)propoxy]carbonyl}-2,6-dihydroxyphenyl)carbonyl]-3-hydroxybenzoic acid] is above 50 µM; for `O=C(OC[C@H](Cc1ccc(O)cc1)NS(=O)(=O)c1ccccc1)c1cc(O)c(C(=O)c2c(O)cccc2C(=O)O)c(O)c1` [2-[(4-{[(2S)-2-benzenesulfonamido-3-(4-hydroxyphenyl)propoxy]carbonyl}-2,6-dihydroxyphenyl)carbonyl]-3-hydroxybenzoic acid] it is above 50 µM; for `O=C(OCCCc1ccc(O)cc1)c1cc(O)c(C(=O)c2c(O)cccc2C(=O)O)c(O)c1` [2-[[2,6-Dihydroxy-4-[[[3-(4-hydroxyphenyl)propyl]oxy]carbonyl]phenyl]carbonyl]-3-hydroxybenzoic Acid] it is above 50 µM.

As for `O=C(O[C@@H]1CCC[C@@H]1Cc1ccc(O)cc1)c1cc(O)c(C(=O)c2c(O)cccc2C(=O)O)c(O)c1` [2-{[2,6-dihydroxy-4-({[(1R,2R)-2-[(4-hydroxyphenyl)methyl]cyclopentyl]oxy}carbonyl)phenyl]carbonyl}-3-hydroxybenzoic acid], the IC50 was above 50 µM.

Take `Cc1ccc(S(=O)(=O)N2CCC[C@@H](OC(=O)c3cc(O)c(C(=O)c4c(O)cccc4C(=O)O)c(O)c3)[C@H](NC(=O)c3ccc(O)cc3)C2)cc1` [2-{[2,6-dihydroxy-4-({[(3R,4R)-3-[(4-hydroxybenzene)amido]-1-[(4-methylbenzene)sulfonyl]azepan-4-yl]oxy}carbonyl)phenyl]carbonyl}-3-hydroxybenzoic acid]: the IC50 was above 150 µM. The figure for `COC(=O)c1cccc(O)c1C(=O)c1c(O)cc(C(=O)O[C@@H]2CCC[C@H]2Cc2ccc(O)cc2)cc1O` [(1R,2S)-2-[(4-hydroxyphenyl)methyl]cyclopentyl 3,5-dihydroxy-4-{[2-hydroxy-6-(methoxycarbonyl)phenyl]carbonyl}benzoate] is above 50 µM; for `CC(CCc1ccc(O)cc1)OC(=O)c1cc(O)c(C(=O)c2c(O)cccc2C(=O)O)c(O)c1` (stereo not drawn) [(+-)-2-[[2,6-Dihydroxy-4-[[[3-(4-hydroxyphenyl)-1-methylpropyl]oxy]carbonyl]phenyl]carbonyl]-3-hydroxybenzoic Acid] it is above 50 µM; for `O=C(OCC(Cc1ccc(O)cc1)NS(=O)(=O)c1ccc2ccccc2c1)c1cc(O)c(C(=O)c2c(O)cccc2C(=O)O)c(O)c1` (stereo not drawn) [(+-)-2-[[2,6-Dihydroxy-4-[[[3-(4-hydroxyphenyl)-2-[(naphthylsulfonyl)amino]propyl]oxy]carbonyl]phenyl]carbonyl]-3-hydroxybenzoic Acid] it is above 50 µM.

`O=C(NC(COC(=O)c1cc(O)c(C(=O)c2c(O)cccc2C(=O)O)c(O)c1)Cc1ccc(O)cc1)c1ccc(O)cc1` (stereo not drawn) [(+-)-2-[[2,6-Dihydroxy-4-[[[3-(4-hydroxyphenyl)-2-[[(4-hydroxyphenyl)carbonyl]amino]propyl]oxy]carbonyl]phenyl]carbonyl]-3-hydroxybenzoic Acid]: the IC50 is above 50 µM. As for `COC(=O)c1cccc(O)c1C(=O)c1c(O)cc(C(=O)OC[C@H](Cc2ccc(O)cc2)NS(=O)(=O)c2ccccc2)cc1O` [(S)-Methyl 2-[[2,6-Dihydroxy-4-[[[3-(4-hydroxyphenyl)-2-[(phenylsulfonyl)amino]propyl]oxy]carbonyl]phenyl]carbonyl]-3-hydroxybenzoate], the concentration for half-maximal inhibition (IC50) is above 50 µM.

The term IC50 denotes the concentration at which inhibition is half-maximal. A high value points to a need for much substance.
